The source of these data is a melting point compilation (Tetko et al.; mined from patent text by program, amines drawn as free bases though some values may be those of a salt).

Non-standard residues stand in square brackets, D forms with d. Residues, ends and D or L forms follow the SMILES beside them. pGlu = O=C1CC[CH](C(=O)O)N1

In general, melting point refers to the temperature of the solid-liquid transition. As to `CC(=O)NC[C@H](O)CC(=O)NN`, the melting point amounted to 178 °C.

As for `CC(C)(C)NCCCNC(=O)Cn1cnc(-c2ccccc2)c1-c1ccccc1`, the melting point lay within 94 to 96 °C.

As to `COc1cc2c(cc1OC)/C(=N/OCc1ccc([N+](=O)[O-])cc1)CCC2`, the melting point fell in the range of 124 to 127 °C.

As to `O=C(CN1C(=O)C2(COc3cc4c(cc32)CCO4)c2cc(Cl)ccc21)Nc1ccccc1F` (centres undefined), the melting point fell in the range of 229 to 230 °C.

Regarding `COc1ccc(C2=C(CC(C)N(C)C(C)C)C(=O)NCCC2)cc1` (centres undefined), the melting point lay in the range of 86 to 88 °C.

As for `Cc1cccc(-c2sc(NC(=O)Nc3ccccc3)nc2-c2cc(C)nc(C)c2)c1`, the melting point was in the range of 173 to 174 °C.

`COc1c(N)nc(-c2ccc(Cl)c(F)c2F)nc1C(=O)NO` had a melting point of 192 to 194 °C.

`CCN(C(=O)OC(C)(C)C)C1CC=C(c2c[nH]c3cc(NC(=N)c4cccs4)ccc23)CC1` (centres undefined) displayed a melting point of 110 to 112 °C.

Compound `CC(=O)OC(OC(C)=O)c1ccc(C(OC(C)=O)(C(F)(F)F)C(F)(F)F)cc1` showed a melting point of 93 to 94.6 °C.

`CSc1c(C(=O)O)ccc(Br)c1F` returned a melting point of 126 to 129 °C.

The compound `CN(C)c1ccc(CNc2ncnc3c2ncn3C2OC(CO)C(O)C2O)cc1` (centres undefined) had a melting point of 170 to 171 °C.

`CCN(c1c(Cl)c(C(F)(F)F)cc2[nH]c(=O)c(=O)[nH]c12)S(C)(=O)=O`: the melting point was over 300 °C.

Compound `Cc1ncsc1C(O)c1ccc(Cl)cc1` (centres undefined) gave a melting point of 134 °C.

For `CN1CCN(C(=O)COc2cccc(CCNS(=O)(=O)c3ccc(Cl)cc3)c2)CC1`, the melting point lay in the range of 139 to 141 °C.

Consider `CCOC(=O)c1noc(C2CC2)c1C(=O)c1ccc(Br)cc1CSC`, for which the melting point was 42 to 43 °C.

Compound `O=C(c1ccccc1)c1ccc(OCCCCCCCCBr)cc1` came in with a melting point of 59 to 61 °C.

In turn, `COc1ccc(CC2NC(=O)NC2=O)cc1OCc1ccccc1` (racemic) came in with a melting point of 155 to 157 °C.

Take `CCOC(=O)c1c(N2CCCCC2)c(C#N)c(=O)n2ccccc12`: the melting point was in the range of 143 to 144 °C.

Compound `Nc1nc2c(s1)C(=O)CCC2` returned a melting point of 259 to 262 °C.

`Nc1ncnc2c1c(-c1ccc(Oc3ccccc3)cc1)cn2C1CCCC1` came in with a melting point of 178 to 179 °C.

Compound `CCC1(CC)COC(=O)N1c1nc(-c2ccc(C#N)cc2)c(F)s1` showed a melting point of 151 to 153 °C.

In the case of `C[C@H]1CCCC(C)(C)[C@]1(C)C(=O)c1ccc(F)cc1`, the melting point was in the range of 49 to 51 °C.

For the compound `Cn1ccnc1Sc1ccc(Nc2c(C#N)cnc3cc(/C=C/CCO)ccc23)cc1Cl`, the melting point lay in the range of 205 to 210 °C.

Turning to `CCOCn1nccc1C(O)c1ccc(O)c(Cl)c1Cl` (centres undefined), the melting point came out at 150 °C.

`O=C(NCCSCc1cccc(Cl)c1)c1c(C(F)(F)F)cccc1C(F)(F)F`: the melting point lay within 93 to 94 °C.

Compound `Nc1c(-c2ccccc2)c(=O)[nH]c2cc(Cl)ccc12` registered a melting point of 337 to 338 °C.

The compound `Cc1ccccc1N(CCC(=O)O)C(=O)Cl` gave a melting point of 112 °C.

For `COc1cc(-n2nc(C)n(C(F)F)c2=O)c(F)cc1Cl`, the melting point lay within 86 to 88 °C.

Compound `NC(=O)CC(NC(=O)C(CO)NC(=O)CNC(=O)CNC(=O)C1CCC(=O)N1)C(=O)NC(Cc1ccccc1)C(N)=O` (centres undefined) ([pGlu]GGSNF-NH2; configuration not given here) yielded a melting point of 218 to 221 °C.

On to `COC(=O)Nc1cccc(OC(=O)N(CCC#N)c2ccccc2)c1`, for which the melting point lay in the range of 98 to 99 °C.

Take `O=C1CCCc2c1c(-c1ccccc1)nn2-c1ccccc1`: the melting point turned out to be 162 °C.

For the compound `COc1ccc(CNc2c(C)c(C)c3c(c2C)C(c2ccccc2)C(C)(C)O3)cc1` (centres undefined), the melting point was 113 to 115 °C.

`CCNc1nc(N)nc2c1ncn2C1CC(N=[N+]=[N-])C(CO)O1` (centres undefined) registered a melting point of 199 to 201 °C.

With `Cn1ncc(C(=O)NC2CC2)c1Cl`, the melting point was in the range of 105 to 107 °C.

The compound `COC(=O)C(=O)c1c(F)cc(OCCOc2ccc3ccccc3c2)cc1F` had a melting point of 130 to 131 °C.

For the compound `CC(C)N(C(=O)c1c(Cl)cccc1[Si](C)(C)C)C(C)C`, the melting point was 96 to 97.5 °C.

In the case of `COc1cc2c(cc1N1CCN(CC3=CC4=CSCC4=C3)CC1)OCC2`, the melting point was 156 to 158 °C.

With `CC1(CN2CCC(C(=O)c3ccc(OC(F)(F)F)cc3)CC2)Cn2cc([N+](=O)[O-])nc2O1` (centres undefined), the melting point is 113 to 115 °C.

In turn, `COC(=O)c1cccc(-c2nc(-c3ccc(F)c(F)c3)cs2)c1` came in with a melting point of 147 to 148 °C.

As to `O=C(N[C@H]1CCCNC1=O)c1cc(F)ccc1F`, the melting point lay in the range of 140 to 142 °C.

For `CC(C)(C)OC(=O)NC(=NS(=O)(=O)C(F)(F)F)NC(=O)OCc1ccccc1`, the melting point is 95 to 97 °C.

`CCc1nn(-c2ccccn2)c2[nH]c3cc(F)c(F)cc3c(=O)c12` showed a melting point of 247 to 248 °C.

Turning to `CC1=CCC2(C)C(CCC3C4CCC(O)C4(C)CCC32)C1` (centres undefined), the melting point lay in the range of 128 to 130 °C.

Turning to `NS(=O)(=O)c1ccc(C2(c3nc4cc(F)ccc4[nH]3)C=C(C(F)(F)F)NN2)cc1` (centres undefined), the melting point lay within 309 to 310 °C.

As for `CCOC(=O)c1cnn(-c2ccc(Oc3ccc(C)cc3O)cc2)c1`, the melting point was in the range of 122 to 123 °C.

`Cc1cc2c(c(C)c1O)C(C)CN2C(=O)C(C)(C)C` (centres undefined): the melting point fell in the range of 144 to 145 °C.

In turn, `CC(C)(C)c1nc(C(=O)c2cc[nH]n2)nc(C(C)(C)C)c1O` returned a melting point of 156 to 161 °C.

Regarding `Cc1ccc(S(=O)(=O)OC[C@H]2CCC[C@H](OCc3c(Cl)cccc3Cl)O2)cc1` (relative stereo), the melting point lay within 123 to 124 °C.

Compound `CCCN1CCC(Cc2ccc3c(c2)c(Cc2ccc(C(=O)NS(=O)(=O)c4ccccc4C)cc2OC)cn3CCC)C1=O` (centres undefined) showed a melting point of 98 to 115 °C.

Regarding `Nc1cc(-n2nc3ccc(Cl)cn3c2=O)c(F)cc1Cl`, the melting point lay in the range of 247 to 250 °C.

In turn, `O=C(Nc1nc2ccc(Sc3nnc4ccc(-c5cccc(F)c5)cn34)cc2s1)C1CC1` had a melting point of over 260 °C.

With `CCCCNC(=O)Oc1ccc(C(O)(CC)c2cccc(C(F)(F)F)c2)cc1` (centres undefined), the melting point lay in the range of 99 to 100 °C.

The compound `CC1(C)CN2C(=O)c3ccccc3C(O)(c3ccc(F)cc3)C2=N1` (centres undefined) returned a melting point of 168 to 170 °C.

In the case of `CC(C)(C)c1ncc(OCc2ccccc2)c(Cl)n1`, the melting point was found to be 51 °C.

As to `O=C(O)c1ccccc1CF`, the melting point lay within 178 to 181 °C.

In the case of `C=C(C)CNc1cc(Cl)nnc1Cl`, the melting point fell in the range of 172 to 175 °C.

Compound `O=C(O)c1ccccc1N1C(=O)c2cccc([N+](=O)[O-])c2C1=O` came in with a melting point of 190 to 192 °C.

As to `Cc1nc(NC(=O)c2ccccc2)n(C)c(=O)c1CCN1CCC(=C(c2ccc(F)cc2)c2ccc(F)cc2)CC1`, the melting point is 240 °C.

With `Cn1c(=O)c2c(ncn2CCN2CCC(c3c[nH]c4ccc(O)cc34)CC2)n(C)c1=O`, the melting point is 232 °C.

Turning to `COc1ccc(-c2ccc(C(=O)O)c(OC)c2)cc1OC`, the melting point lay in the range of 134 to 135 °C.

In the case of `C=CCON=C(C(=O)O)C1=CSCCO1`, the melting point lay within 119 to 121 °C.

`COc1cccc(-c2cccc(Oc3nc(OC)cc(OC)n3)c2C(=O)O)n1`: the melting point lay within 158 to 160 °C.

Regarding `COc1ccc(CNC(=O)C2=C(C(=O)Nc3cc(OC4CCCC4)c(Cl)cc3F)CCCC2)cc1`, the melting point lay within 161 to 162 °C.

In turn, `CC(=O)c1c(N=Cc2ccccc2)c(-c2ccccc2)n(Cc2ccc(Cl)cc2)c1C` registered a melting point of 136 to 137 °C.

On to `COc1ccc(Cn2cccc2C(=O)CC(=O)C(=O)O)cc1`, for which the melting point fell in the range of 167 to 168 °C.

Turning to `O=C1NC(=S)NC(=O)C1=Cc1cccc2ccccc12`, the melting point was 280 °C.

`FC(F)(F)c1cc(-c2ccc(Cl)cc2)nc2c(-c3cccnc3)ncn12` gave a melting point of 206 °C.

`CCOC(=O)C(C)Oc1ccc(Oc2cnc3ccc(Cl)cc3c2)cc1` (centres undefined) showed a melting point of 98 °C.

The compound `Cc1cc(-c2nc3cccnn3c2-c2ccnc(NC(=O)C3CC3)c2)ccc1F` gave a melting point of 217 to 218 °C.

Turning to `COCc1cc([N+](=O)[O-])c(Cl)cc1C#N`, the melting point is 57 to 59 °C.

As to `CN(O)C(=O)c1ccc(CCCCc2ccccc2)cc1`, the melting point fell in the range of 62 to 63.5 °C.

In turn, `C[C@]12CC[C@@H]3C4=C(CC[C@H]3[C@@H]1CCC21CC(O)CO1)CC(=O)CC4` (some centres undefined) displayed a melting point of 118 to 123 °C.

`O=C(O)[C@@H]1CCCN1C(=O)C1CCC1S` (some centres undefined) came in with a melting point of 145 to 146 °C.

As for `C[Si](C)(C)c1ccc2c(c1)cc(C(=O)Nc1ccc(N3CC(O)C3)nc1)n2Cc1cccc(F)c1`, the melting point lay in the range of 207 to 208 °C.

The compound `CON=Cc1c(S(N)(=O)=O)ccn1C` registered a melting point of 120 to 122 °C.

In turn, `CC(=O)NCc1nc(NCCCOc2cccc(CN3CCCCC3)c2)n(C)n1` registered a melting point of 123 °C.

Compound `Oc1ccc(Nc2ncc3ncc(Cl)cc3n2)cc1` showed a melting point of 232 to 234 °C.

For the compound `O=C1C(=O)c2ccccc2C2=C1SCC1(CCN(Cc3c(F)cccc3Cl)CC1)O2`, the melting point lay within 90 to 92 °C.

Consider `CS(=O)(=O)Oc1ccccc1S(N)(=O)=O`, for which the melting point fell in the range of 131 to 132 °C.

Turning to `Cc1cn(COCCO)c(=O)[nH]c1=O`, the melting point fell in the range of 138 to 140 °C.

`COc1cc(COc2nn(Cc3ccccc3)cc2CO)ccc1OCc1nc(-c2ccco2)oc1C` showed a melting point of 104 to 105 °C.

Consider `N=C(N)c1ccc(N2CC(CN3CCN(CCC(=O)O)CC3)OC2=O)cc1` (centres undefined), for which the melting point was 269 °C.

As for `N#Cc1ncn(Cc2ccccc2)c1C#N`, the melting point was 123 to 125 °C.

Turning to `CS(=O)(=O)c1cccc(Cn2ccc(OCc3ccc(F)cc3F)c(Cl)c2=O)c1`, the melting point was in the range of 155 to 157 °C.

The compound `N#CSc1cc(-c2ccccc2)c(O)c(-c2ccccc2)c1` yielded a melting point of 104 to 106 °C.

In turn, `Cn1ncc2c1-c1c(S(C)(=O)=O)sc(S(N)(=O)=O)c1CC2` showed a melting point of 228 to 229 °C.

Compound `C=C1C=C(Oc2cc(C(=O)OC)ccc2OC)C1(F)F` yielded a melting point of 60 to 62 °C.

`CC(Cc1ccc(OCCO)cc1)NCC(O)c1ccccc1F` (centres undefined) yielded a melting point of 80 to 95 °C.

As for `CC1(C)CC(=O)C(c2c(Cl)cc(N)cc2Cl)C(=O)C1`, the melting point was found to be 243 °C.
